Data set [1] in a line: Partition coefficient (logP). The class given is physicochemical. To be noted: octanol/water.
Data set [2] in a line: Compound was evaluated for its anticoagulant and antithrombotic activity by measuring the clotting parameter in human plasma. The class given is functional.
The next data set is filed under the species Homo sapiens. Description: Compound was evaluated for its anticoagulant and antithrombotic activity by measuring the %protein binding in human plasma. The class given is functional, cell-free.
Data set [3] is filed under the species Rattus norvegicus. Description: Compound was evaluated for its anticoagulant and antithrombotic activity by measuring the clotting parameter in rat plasma. The class given is functional.
Data set [4] is described as follows: Compound was evaluated for Clearance in dogs at a dose of 1 mpk intravenously. The class given is ADME, organism-based, Canis lupus familiaris. To be noted: dog, in vivo, iv, 1 mg/kg; read-out: CI.
For data set [5], the species on record is Rattus norvegicus. Description: Compound was evaluated for its anticoagulant and antithrombotic activity by measuring the final plasma concentration in rat plasma. Format: functional, organism-based.
Data set [6] can be described thus: Bioavailability as Cmax in dogs at 5 mg/kg oral dose. To be noted: dog, in vivo. The class given is ADME, organism-based, Canis lupus familiaris. Details: dose 5 mg/kg, route oral.
For a further data set, the target named is Prothrombin (Homo sapiens, UniProt P00734). Description: Compound was evaluated to inhibit the thrombin enzyme.
The nature of data set [7]: Compound was evaluated for area under curve (total concentration) in dogs at a dose of 1 mpk perorally. Particulars: dog, in vivo, po, 1 mg/kg. The class given is ADME, organism-based, Canis lupus familiaris.
A short description of data set [8]: Bioavailability as Vdss in dogs at 1 mg/kg intravenous dose. The class given is ADME, organism-based, Canis lupus familiaris. Particulars: dog, in vivo, read-out: Vdss.
Another data set concerns the target Serine protease 1 (Homo sapiens, UniProt P07477). Description: Compound was evaluated to inhibit the trypsin enzyme.
The species entered for data set [9] is Rattus norvegicus. Description: Compound was evaluated for its anticoagulant and antithrombotic activity by measuring the %protein binding in rat plasma. The class given is functional, organism-based.
A short description of data set [10]: (§1) Compound was evaluated for half-life period in dogs at a dose of 5 mpk perorally. Format: ADME, organism-based, Canis lupus familiaris. To be noted: dog, in vivo, po, 5 mg/kg.
Data set [11] in a line: Compound was evaluated for area under curve (total concentration) in dogs at a dose of 5 mpk perorally. The class given is ADME, organism-based, Canis lupus familiaris. To be noted: dog, in vivo, po, 5 mg/kg.
The next data set is filed under the species Canis familiaris. Described as §1. The class given is ADME, organism-based, Canis lupus familiaris. Particulars: dog, in vivo, po, 5 mg/kg.

Sequence of Serine protease 1 (P07477 whole entry): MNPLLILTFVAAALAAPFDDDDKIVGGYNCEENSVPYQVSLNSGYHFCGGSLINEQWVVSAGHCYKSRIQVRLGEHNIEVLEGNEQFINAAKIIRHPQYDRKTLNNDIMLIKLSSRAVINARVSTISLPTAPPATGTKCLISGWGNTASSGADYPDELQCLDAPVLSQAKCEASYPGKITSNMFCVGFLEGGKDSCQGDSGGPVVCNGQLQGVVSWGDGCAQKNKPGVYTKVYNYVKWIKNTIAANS

Turning to `CCCc1ccc(NS(=O)(=O)Cc2ccccc2)c(=O)n1CC(=O)NCc1ccc(N)nc1C`, in data set [1], the logP was found to be 1.52. Further, the figures for the “2x APTT” value (in [2]; in the data set listed under Rattus norvegicus [3]) were 0.32 µM and 0.4 µM, respectively. Moreover, the results for the PPB in the data set listed under Homo sapiens and in the data set filed under Rattus norvegicus [9] were 88% and 75%, respectively. For the same compound, the clearance in [4] was determined as 5.82 mL/min/kg. Moreover, in the data set filed under Rattus norvegicus [5], the Plasma concentration worked out at 0.389 µM. In [6], the Cmax came to 9.46 µM. For the same compound, the figures for the Ki on Prothrombin and on Serine protease 1 were 0.85 nM and 1400 nM, respectively. For the same compound, the figures for the AUC in data set [7] and in [11] were 5.93 µM·h and 40.6 µM·h, respectively. In data set [8], the Vd is 0.54 L/kg. In [10], this compound came in with a half-life of 189 min.
In turn, `Cc1nc(N)ccc1CNC(=O)Cn1c(C)ccc(NS(=O)(=O)Cc2ccccc2)c1=O` [L-374087] displayed a logP in data set [1] of 0.69. For the same compound, the entries for the “2x APTT” value (in [2]; in the data set filed under Rattus norvegicus [3]) were 0.22 µM and 0.25 µM, respectively. Besides, the figures for the PPB in the data set listed under Homo sapiens and in the data set filed under Rattus norvegicus [9] were 78% and 47%, respectively. The clearance in [4] came out at 3.8 mL/min/kg. The compound further came in with a Plasma concentration in the data set listed under Rattus norvegicus [5] of 0.586 µM. This compound yielded a Cmax in data set [6] of 5.31 µM. The exposure (AUC) in data set [7] amounted to 9.92 µM·h; in data set [11], 18.8 µM·h. Besides, in data set [8], the Vd stood at 0.46 L/kg. The compound also had a T1/2 in the data set filed under Canis familiaris of 2.52 h.
Consider `Cc1nc(N)ccc1CNC(=O)Cn1c(C2CC2)ccc(NS(=O)(=O)Cc2ccc(Cl)cc2)c1=O`, for which the log partition coefficient (logP) in data set [1] was determined as 1.98. Further, the “2x APTT” value in data set [2] was 1.43 µM. The same compound came in with a PPB in the data set listed under Homo sapiens of 94%. Also, the Plasma concentration in the data set filed under Rattus norvegicus [5] turned out to be 0.347 µM. Moreover, the Ki worked out at 4 nM at Prothrombin and 1900 nM at Serine protease 1.
In the case of `Cc1nc(N)ccc1CNC(=O)Cn1c(C(F)(F)F)ccc(NS(=O)(=O)Cc2ccccc2)c1=O`, the inhibition constant (Ki) on Prothrombin stood at 12 nM; at Serine protease 1 it was 2500 nM.
For `Cc1nc(N)ccc1CNC(=O)Cn1c(C2CC2)ccc(NS(=O)(=O)Cc2ccccc2)c1=O`, in that order: 16 nM and 1700 nM.
The matching figures for `Cc1nc(N)ccc1CNC(=O)Cn1c(C)ccc(NS(=O)(=O)Cc2ccc(Cl)cc2)c1=O`: 0.12 nM and 2600 nM.
With `Cc1nc(N)ccc1CNC(=O)Cn1c(C(F)(F)F)ccc(NS(=O)(=O)Cc2ccc(Cl)cc2)c1=O`, the Ki at Prothrombin worked out at 2.6 nM; at Serine protease 1, 3400 nM.

The values are drawn from ChEMBL document CHEMBL1130870, “C6 modification of the pyridinone core of thrombin inhibitor L-374,087 as a means of enhancing its oral absorption” (Bioorg Med Chem Lett, 1998).
